In patent US20050154230A1, “Urea derivatives” (Bayer HealthCare AG, priority 2001, published 2005) one finds melting point and IC50 data, which are given here for 62 compounds.

In one data set the target is T1, human VR1 (Homo sapiens, UniProt Q8NER1).
T1 construct: expressed in transfected cells
Briefly: Capsaicin-induced Ca2+ influx in the human VR1-transfected CHO cell line (Assay 1). The data set is classed as cell-based. The gist of the method: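 CHO cells expressing human VR1 with an aequorin reporter were treated with compound or vehicle for 20 min at 25° C. Capsaicin-induced Ca^2+ influx was then measured on an FDSS-3000. Integral R was calculated and compared with controls.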

Setting [1] is: human VR1-CHOluc9aeq cells, 10 nM capsaicin, compound purity about 40 to 90%, read-out: hVR1 class.

pIC50: −log10 of the molar value. Where two headings read alike, the source gives them in different places. Bounds are passed on as bounds.

T1 sequence (Q8NER1 whole entry): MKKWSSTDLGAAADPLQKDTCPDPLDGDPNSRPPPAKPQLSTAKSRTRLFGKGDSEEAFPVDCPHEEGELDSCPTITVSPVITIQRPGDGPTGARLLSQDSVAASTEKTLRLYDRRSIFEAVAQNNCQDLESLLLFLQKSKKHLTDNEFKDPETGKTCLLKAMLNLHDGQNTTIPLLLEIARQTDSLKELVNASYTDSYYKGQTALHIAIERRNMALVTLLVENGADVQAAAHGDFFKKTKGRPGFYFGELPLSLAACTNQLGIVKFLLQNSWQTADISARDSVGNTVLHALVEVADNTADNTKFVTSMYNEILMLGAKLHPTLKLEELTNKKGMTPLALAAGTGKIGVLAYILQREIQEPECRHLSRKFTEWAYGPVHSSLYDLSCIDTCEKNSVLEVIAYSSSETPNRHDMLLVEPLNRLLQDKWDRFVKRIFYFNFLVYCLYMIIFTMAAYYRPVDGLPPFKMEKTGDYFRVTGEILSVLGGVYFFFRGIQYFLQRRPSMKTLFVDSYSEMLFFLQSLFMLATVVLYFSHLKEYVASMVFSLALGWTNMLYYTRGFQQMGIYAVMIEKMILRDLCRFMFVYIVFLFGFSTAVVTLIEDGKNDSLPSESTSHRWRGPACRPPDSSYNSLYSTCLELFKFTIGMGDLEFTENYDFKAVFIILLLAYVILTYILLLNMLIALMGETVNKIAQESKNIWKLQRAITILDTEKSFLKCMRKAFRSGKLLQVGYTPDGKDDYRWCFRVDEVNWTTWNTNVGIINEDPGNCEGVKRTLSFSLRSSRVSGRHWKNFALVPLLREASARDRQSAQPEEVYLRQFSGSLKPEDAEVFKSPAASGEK

`Cc1cc(C)c(NC(=O)Nc2ccccc2CCO)c(C)c1` [Example 115] returned a melting point of 243 °C. Moreover, the pIC50 at human VR1 (setting [1]) is 6.00 to 6.30.
The corresponding values for `Cc1cccc(C)c1NC(=O)Nc1ccccc1CCO` [Example 116] are 226 °C and 6.00 to 6.30.
Consider `CC(=O)c1cccc(NC(=O)Nc2ccccc2CCO)c1` [Example 117], for which the melting point was 177 °C. The pIC50 at human VR1 (setting [1]) was 6.00 to 6.30.
`COC(=O)c1ccccc1NC(=O)Nc1ccccc1CCO` [Example 118]: the melting point is 128 °C. On human VR1 (setting [1]), the pIC50 was 6.00 to 6.30.
The corresponding values for `O=C(NCc1ccccc1F)Nc1ccccc1CCO` [Example 119] are 141 to 143 °C and 6.00 to 6.30.
Taken in the same sequence, the figures for `O=C(NCc1cccc(F)c1)Nc1ccccc1CCO` [Example 120] were 160 to 162 °C and 6.00 to 6.30.
The corresponding values for `O=C(NCc1ccc(F)cc1)Nc1ccccc1CCO` [Example 121] are 165 to 167 °C and 6.00 to 6.30.
`CN(C)c1ccc(NC(=O)Nc2ccccc2CCO)cc1` [Example 122] came in with a melting point of 187 to 188 °C. Also, at human VR1 (setting [1]), the pIC50 was 6.00 to 6.30.
The corresponding values for `Cc1ccccc1CNC(=O)Nc1ccccc1CCO` [Example 123] are 186 to 188 °C and 6.00 to 6.30.
Taken in the same sequence, the figures for `Cc1cccc(CNC(=O)Nc2ccccc2CCO)c1` [Example 124] were 148 to 150 °C and 6.00 to 6.30.
The corresponding values for `Cc1ccc(CNC(=O)Nc2ccccc2CCO)cc1` [Example 125] are 181 to 183 °C and 6.00 to 6.30.
In turn, `O=C(NCc1ccccc1Cl)Nc1ccccc1CCO` [Example 126] returned a melting point of 183 to 185 °C. Also, the pIC50 on human VR1 (setting [1]) was 6.00 to 6.30.
The corresponding values for `COc1ccc(CNC(=O)Nc2ccccc2CCO)cc1` [Example 127] are 175 to 177 °C and 6.00 to 6.30.
The corresponding values for `Cc1cccc(NC(=O)Nc2ccccc2CCO)c1` [Example 129] are 186 °C and 6.00 to 6.30.
On to `O=C(Nc1ccc(F)cc1)Nc1ccccc1CCO` [Example 131], for which the melting point came out at 183 °C. Besides, the pIC50 on human VR1 (setting [1]) is 6.00 to 6.30.
The corresponding values for `O=C(Nc1cccc(F)c1)Nc1ccccc1CCO` [Example 132] are 166 °C and 6.00 to 6.30.
The corresponding values for `Cc1ccc(NC(=O)Nc2ccccc2CCO)c(C)c1` [Example 133] are 181 °C and 6.00 to 6.30.
Taken in the same sequence, the figures for `COc1ccccc1NC(=O)Nc1ccccc1CCO` [Example 134] were 154 °C and 6.00 to 6.30.
`COc1cccc(NC(=O)Nc2ccccc2CCO)c1` [Example 135] gave a melting point of 169 °C. For the same compound, the pIC50 on human VR1 (setting [1]) was 6.00 to 6.30.
Taken in the same sequence, the figures for `COc1ccc(NC(=O)Nc2ccccc2CCO)cc1` [Example 136] were 186 °C and 6.00 to 6.30.
Taken in the same sequence, the figures for `O=C(Nc1ccc(F)cc1F)Nc1ccccc1CCO` [Example 145] were 174 to 176 °C (dec.) and 6.00 to 6.30.
The corresponding values for `CCOc1ccccc1NC(=O)Nc1ccccc1CCO` [Example 146] are 112 to 114 °C (dec.) and 6.00 to 6.30.
In the case of `O=C(Nc1ccccc1CCO)Nc1ccccc1[N+](=O)[O-]` [Example 147], the melting point lay in the range of 112 to 114 °C. For the same compound, at human VR1 (setting [1]), the pIC50 was 6.00 to 6.30.
Taken in the same sequence, the figures for `Cc1ccc(NC(=O)Nc2ccccc2CCO)cc1Cl` [Example 148] were 195 to 196 °C and 6.00 to 6.30.
The corresponding values for `O=C(Nc1ccccc1CCO)Nc1cccc2ccccc12` [Example 149] are 188 to 191 °C (dec.) and 6.00 to 6.30.
The corresponding values for `COc1ccc(NC(=O)Nc2ccccc2CCO)c(OC)c1` [Example 150] are 189 to 190 °C and 6.00 to 6.30.
On to `COc1ccc(OC)c(NC(=O)Nc2ccccc2CCO)c1` [Example 151], for which the melting point is 157 to 158 °C. The pIC50 at human VR1 (setting [1]) was 6.00 to 6.30.
The corresponding values for `O=C(Nc1ccccc1CCO)Nc1ccccc1C(F)(F)F` [Example 152] are 180 to 182 °C and 6.00 to 6.30.
The corresponding values for `O=C(NCc1ccccc1)Nc1ccccc1CCO` [Example 153] are 149 to 150 °C and 6.00 to 6.30.
For `O=C(Nc1cc(Cl)nc(Cl)c1)Nc1ccccc1CCO` [Example 154], the melting point worked out at 194 °C. Further, the pIC50 on human VR1 (setting [1]) is 6.00 to 6.30.
Taken in the same sequence, the figures for `CC(NC(=O)Nc1ccccc1CCO)c1cccc2ccccc12` (stereo not shown) [Example 155] were 176 °C and 6.00 to 6.30.
Taken in the same sequence, the figures for `CSc1ccc(NC(=O)Nc2ccccc2CCO)cc1` [Example 156] were 176 to 177 °C and 6.00 to 6.30.
The corresponding values for `O=C(Nc1ccccc1CCO)Nc1ccccc1Cc1ccccc1` [Example 157] are 162 to 164 °C and 6.00 to 6.30.
Consider `O=C(Nc1ccc(Cc2ccccc2)cc1)Nc1ccccc1CCO` [Example 158], for which the melting point fell in the range of 164 to 166 °C. Further, the pIC50 on human VR1 (setting [1]) was 6.30 to 7.00.
The corresponding values for `O=C(Nc1ccc(Nc2ccccc2)cc1)Nc1ccccc1CCO` [Example 159] are 150 to 151 °C and 6.00 to 6.30.
Regarding `O=C(Nc1ccccc1CCO)Nc1ccccc1Oc1ccccc1` [Example 160], the melting point fell in the range of 190 to 191 °C. The pIC50 on human VR1 (setting [1]) is 6.00 to 6.30.
The corresponding values for `N#Cc1ccc(-c2ccc(NC(=O)Nc3ccccc3CCO)cc2)cc1` [Example 161] are 213 to 215 °C and 6.00 to 6.30.
`Cc1ccc2ccccc2c1NC(=O)Nc1ccccc1CCO` [Example 164] had a melting point of 204 °C. Also, the pIC50 on human VR1 (setting [1]) is 6.00 to 6.30.
Taken in the same sequence, the figures for `Cc1ccc2cc(NC(=O)Nc3ccccc3CCO)ccc2n1` [Example 165] were 207 °C and 6.00 to 6.30.
The compound `O=C(Nc1ccccc1CCO)Nc1cccc2ccc(O)cc12` [Example 166] returned a melting point of 212 °C. Moreover, the pIC50 on human VR1 (setting [1]) is 6.00 to 6.30.
The corresponding values for `O=C(Nc1ccc(N2CCCCC2)cc1)Nc1ccccc1CCO` [Example 168] are 188 °C and 6.00 to 6.30.
`O=C(Nc1ccc2c(c1)Cc1ccccc1-2)Nc1ccccc1CCO` [Example 169] gave a melting point of more than 250 °C. The pIC50 on human VR1 (setting [1]) was more than 7.00.
The corresponding values for `O=C(Nc1cccc(Oc2ccccc2)c1)Nc1ccccc1CCO` [Example 171] are 145 to 146 °C and more than 7.00.
The corresponding values for `CCn1c2ccccc2c2cc(NC(=O)Nc3ccccc3CCO)ccc21` [Example 172] are 224 to 226 °C and more than 7.00.
The corresponding values for `COc1ccc(-c2ccccc2)cc1NC(=O)Nc1ccccc1CCO` [Example 173] are 178 to 180 °C and 6.30 to 7.00.
`O=C(Nc1cccc(OCc2ccccc2)c1)Nc1ccccc1CCO` [Example 174] came in with a melting point of 146 to 148 °C. In addition, the pIC50 at human VR1 (setting [1]) was more than 7.00.
`Cc1ccccc1Oc1ccccc1NC(=O)Nc1ccccc1CCO` [Example 175] registered a melting point of 170 to 172 °C. Besides, at human VR1 (setting [1]), the pIC50 is 6.00 to 6.30.
Taken in the same sequence, the figures for `Cc1ccc(Oc2ccc(NC(=O)Nc3ccccc3CCO)cc2)cc1` [Example 176] were 164 to 168 °C (dec.) and more than 7.00.
The corresponding values for `O=C(Nc1ccc(F)c(F)c1)Nc1ccccc1CCO` [Example 179] are 162 to 164 °C and 6.00 to 6.30.
`O=C(Nc1cc(F)cc(F)c1)Nc1ccccc1CCO` [Example 180] displayed a melting point of 188 to 189 °C. At human VR1 (setting [1]), the pIC50 was 6.30 to 7.00.
The compound `Cc1ccc(NC(=O)Nc2ccccc2CCO)cc1F` [Example 181] came in with a melting point of 184 to 186 °C. For the same compound, at human VR1 (setting [1]), the pIC50 was 6.00 to 6.30.
The corresponding values for `O=C(Nc1ccccc1CCO)Nc1cccc(F)c1F` [Example 182] are 159 to 161 °C and 6.00 to 6.30.
Taken in the same sequence, the figures for `O=C(Nc1cc(F)c(F)cc1F)Nc1ccccc1CCO` [Example 183] were 172 to 174 °C and 6.00 to 6.30.
The corresponding values for `O=C(Nc1ccc(F)c(C(F)(F)F)c1)Nc1ccccc1CCO` [Example 184] are 158 to 161 °C (dec.) and more than 7.00.
Compound `O=C(Nc1ccc(Br)c(C(F)(F)F)c1)Nc1ccccc1CCO` [Example 185] came in with a melting point of 161 to 164 °C. For the same compound, the pIC50 on human VR1 (setting [1]) is more than 7.00.
`N#Cc1ccc(NC(=O)Nc2ccccc2CCO)cc1C(F)(F)F` [Example 186] registered a melting point of 171 °C. On human VR1, this compound showed a pIC50 of more than 7.00.
The compound `O=C(Nc1ccc([N+](=O)[O-])c(C(F)(F)F)c1)Nc1ccccc1CCO` [Example 187] registered a melting point of 149 to 150 °C. Also, at human VR1 (setting [1]), the pIC50 is 6.30 to 7.00.
The corresponding values for `COc1cc(NC(=O)Nc2ccccc2CCO)cc(C(F)(F)F)c1` [Example 188] are 161 to 162 °C and more than 7.00.
As for `O=C(Nc1cc(C(F)(F)F)ccc1F)Nc1ccccc1CCO` [Example 189], the melting point lay within 150 to 152 °C. For the same compound, the pIC50 on human VR1 (setting [1]) was 6.00 to 6.30.
The corresponding values for `O=C(Nc1ccc(F)c(Cl)c1)Nc1ccccc1CCO` [Example 190] are 193 to 194 °C and 6.30 to 7.00.
The corresponding values for `N#Cc1ccc(NC(=O)Nc2ccccc2CCO)cc1Cl` [Example 191] are 186 to 187 °C and 6.30 to 7.00.
The corresponding values for `O=C(Nc1ccc(-c2ccc(F)cc2)cc1)Nc1ccccc1CCO` [Example 192] are 197 °C and 6.30 to 7.00.
